Data on 22 compounds can be found in ChEMBL document CHEMBL6177977, “Discovery of a Potent, Selective, and Brain-Penetrant Checkpoint Kinase 1 Inhibitor, BEN-28010, for the Treatment of Glioblastoma” (J Med Chem, 2025).

Values after ≈ are worked out from the molar mass of the structure shown.

The target in series [1] is T1, Serine/threonine-protein kinase Chk1 (Homo sapiens, UniProt O14757).
T1 sequence (O14757 whole entry): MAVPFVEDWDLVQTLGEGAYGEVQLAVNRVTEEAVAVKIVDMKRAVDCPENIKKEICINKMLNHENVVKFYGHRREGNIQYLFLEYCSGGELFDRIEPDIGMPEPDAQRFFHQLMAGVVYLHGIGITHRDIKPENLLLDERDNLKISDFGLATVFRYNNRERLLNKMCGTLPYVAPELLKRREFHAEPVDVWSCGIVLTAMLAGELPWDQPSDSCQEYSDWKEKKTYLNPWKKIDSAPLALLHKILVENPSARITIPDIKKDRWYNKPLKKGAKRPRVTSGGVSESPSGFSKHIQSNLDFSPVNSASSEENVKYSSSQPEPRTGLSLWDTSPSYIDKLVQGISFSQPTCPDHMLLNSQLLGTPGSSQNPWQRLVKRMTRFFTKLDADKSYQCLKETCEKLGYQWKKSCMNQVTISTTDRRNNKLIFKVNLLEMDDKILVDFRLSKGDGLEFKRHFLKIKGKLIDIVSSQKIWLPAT
The series is described as follows: Inhibition of N-terminal GST-fused human full length CHK1 (1 to 476 residues) expressed in baculovirus-infected Sf21 cells using STK1 S1 as substrate preincubated for 30 mins in presence of ATP followed by MgCl2 addition and measured after 60 mins by TR-FRET assay. (In general: In TR-FRET formats the signal depends on donor and acceptor labels being close together.)

The test system of the next series is MDR1. The series is described as follows: in vitro. The following applies: dog, MDCK-MDR1.
Another series relates to BCRP. The series is described as follows: in vitro. The following applies: dog.
For series [2], the target named is Serine/threonine-protein kinase Chk2 (Homo sapiens, UniProt O96017). The series is described as follows: biochemical.
Serine/threonine-protein kinase Chk2, sequence (O96017 whole entry): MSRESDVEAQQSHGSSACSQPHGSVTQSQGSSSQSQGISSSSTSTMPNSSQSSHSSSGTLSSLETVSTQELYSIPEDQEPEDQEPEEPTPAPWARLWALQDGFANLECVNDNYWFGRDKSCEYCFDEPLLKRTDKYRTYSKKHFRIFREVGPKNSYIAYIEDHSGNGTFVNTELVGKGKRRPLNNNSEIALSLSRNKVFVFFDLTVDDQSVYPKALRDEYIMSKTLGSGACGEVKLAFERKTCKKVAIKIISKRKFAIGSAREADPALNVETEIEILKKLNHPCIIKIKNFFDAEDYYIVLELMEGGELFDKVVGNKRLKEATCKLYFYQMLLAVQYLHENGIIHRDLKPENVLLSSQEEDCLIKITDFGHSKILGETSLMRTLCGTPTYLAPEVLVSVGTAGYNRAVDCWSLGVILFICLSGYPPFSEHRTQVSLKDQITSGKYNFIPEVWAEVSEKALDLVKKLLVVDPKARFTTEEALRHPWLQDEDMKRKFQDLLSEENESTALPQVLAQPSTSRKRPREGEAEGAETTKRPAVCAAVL
Description: Inhibition of N-terminal GST-fused human full length CHK2 (1 to 543 residues) expressed in baculovirus-infected Sf21 cells using STK1 S1 as substrate preincubated for 30 mins in presence of ATP followed by MgCl2 addition and measured after 60 mins by TR-FRET assay
Series [3] concerns the target T1, Serine/threonine-protein kinase Chk1. The series is described as follows: Inhibition of human full length recombinant CHK1 using KKKVSRSGLYRSPSMPENLNRPR as substrate in presence of [gamma-33P]ATP incubated for 40 mins by radiometric assay.
A short description of series [4]: Apparent permeability of the compound in dog MDCK-MDR1 cells at 1 uM measured after 1 day by LC-MS/MS analysis. The class given is ADME, cell-based, Canis lupus familiaris.
Series [5] has as its target T1, Serine/threonine-protein kinase Chk1. Briefly: Inhibition of CHK1 in neocarzinostatin-stimulated human SW620 cells assessed as inhibition of CHK1 phosphorylation at Ser296 residue incubated for 2 hrs by sandwich ELISA. The class given is cell-based. On the technique in general: An ELISA detects its analyte on a solid surface through an enzyme-linked reagent.
Series [6] concerns the target Voltage-dependent L-type calcium channel subunit alpha-1C (Homo sapiens, UniProt Q13936). The series is described as follows: Inhibition of human Cav1.2 transfected in CHO cells by automated electrophysiological analysis. The class given is cell-based.
Series [7] concerns the target Sodium channel protein type 5 subunit alpha (Homo sapiens, UniProt Q14524). Briefly: Inhibition of human Nav1.5 transfected in CHO cells by automated electrophysiological analysis. The class given is cell-based.
Series [8] is described as follows: Plasma concentration required to achieve 50% in vivo inhibition of CHK1 assessed as accumulation of CHK1 phosphorylation at Ser345 residue in tumors in po dosed GBM LN-229 CDX NOD/SCID mouse model. The note with it: LN-229, Plasma. The class given is organism-based.
Series [9] has as its system GBM. The series is described as follows: Antitumor activity against human patient-derived GBM cells implanted in orthotopic NOG mouse model assessed as lifespan of animal's survival at 30 mg/kg, po qd for 28 days (reference value: 25.5 days). The class given is functional. The following applies: time 28 day.
In series [10] the test system is GBM. The series is described as follows: Antitumor activity against human patient-derived GBM cells implanted in orthotopic NOG mouse model assessed as lifespan of animal's survival at 50 mg/kg, po qd with dosing schedule of 3 days on and 4 days off for 28 days (reference value: 25.5 days). The class given is functional. The following applies: time 28 day.
For series [11], the system named is GBM. Briefly: Antitumor activity against human patient-derived GBM cells implanted in orthotopic NOG mouse model assessed as lifespan of animal's survival at 100 mg/kg, po qd with dosing schedule of 2 days on and 11 days off for 28 days (reference value: 25.5 days). The class given is functional. The note with it: time 28 day.
The target of series [12] is Voltage-gated inwardly rectifying potassium channel KCNH2 (Homo sapiens, UniProt Q12809). The series is described as follows: Inhibition of hERG expressed in HEK cells by electrophysiology. It is filed as toxicity, cell-based.
Voltage-gated inwardly rectifying potassium channel KCNH2, sequence (Q12809 whole entry): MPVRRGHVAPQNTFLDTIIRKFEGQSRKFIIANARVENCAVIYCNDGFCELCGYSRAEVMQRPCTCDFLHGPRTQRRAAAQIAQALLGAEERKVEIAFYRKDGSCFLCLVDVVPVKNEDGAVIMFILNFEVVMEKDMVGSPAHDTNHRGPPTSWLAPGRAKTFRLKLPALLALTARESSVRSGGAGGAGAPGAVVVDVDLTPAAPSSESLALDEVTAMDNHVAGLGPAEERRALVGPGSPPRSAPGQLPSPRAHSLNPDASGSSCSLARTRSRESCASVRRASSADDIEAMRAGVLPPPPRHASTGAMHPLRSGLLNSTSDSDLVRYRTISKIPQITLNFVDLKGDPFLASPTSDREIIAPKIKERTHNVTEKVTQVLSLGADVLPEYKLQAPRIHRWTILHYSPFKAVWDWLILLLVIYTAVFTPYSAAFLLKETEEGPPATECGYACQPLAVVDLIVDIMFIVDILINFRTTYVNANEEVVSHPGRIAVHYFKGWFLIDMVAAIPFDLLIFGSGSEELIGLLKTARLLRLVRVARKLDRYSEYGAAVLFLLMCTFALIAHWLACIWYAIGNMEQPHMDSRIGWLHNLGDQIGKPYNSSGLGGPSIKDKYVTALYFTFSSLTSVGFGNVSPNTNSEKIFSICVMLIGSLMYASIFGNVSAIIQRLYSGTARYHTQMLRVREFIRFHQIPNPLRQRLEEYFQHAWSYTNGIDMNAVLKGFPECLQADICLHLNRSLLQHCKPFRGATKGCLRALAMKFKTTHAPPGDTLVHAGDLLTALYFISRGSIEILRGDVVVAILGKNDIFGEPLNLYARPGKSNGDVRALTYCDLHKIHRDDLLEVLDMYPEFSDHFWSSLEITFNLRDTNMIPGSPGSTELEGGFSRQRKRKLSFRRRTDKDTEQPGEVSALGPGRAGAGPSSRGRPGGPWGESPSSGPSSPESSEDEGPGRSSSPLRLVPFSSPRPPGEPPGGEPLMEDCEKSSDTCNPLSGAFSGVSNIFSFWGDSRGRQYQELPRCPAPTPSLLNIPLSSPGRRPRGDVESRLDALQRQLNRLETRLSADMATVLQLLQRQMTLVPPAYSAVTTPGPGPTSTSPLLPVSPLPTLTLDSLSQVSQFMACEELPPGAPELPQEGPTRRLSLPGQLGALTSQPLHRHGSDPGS
Series [13] in a line: Kinetic aqueous solubility of the compound at 250 uM measured after 2 hrs by RP-UPLC-DAD analysis. The class given is physicochemical. The note with it: buffer, read-out: Kinetic_solubility.
Series [14] in a line: Intrinsic clearance in human liver microsomes measured per mg protein. The note with it: read-out: CLH. The class given is ADME, Microsome.
Series [15] is described as follows: Intrinsic clearance in rat liver microsomes measured per mg protein. It is filed as ADME, Microsome. The following applies: read-out: CLH. On the technique in general: Liver microsomes are vesicles of endoplasmic reticulum, rich in cytochrome P450 enzymes.
The nature of the next series: in vivo. The note with it: Sprague-Dawley, rat, brain and plasma, iv, 1 mg/kg.
The next series in a line: in vitro. The following applies: dog, MDCK.
Series [16] has as its system GBM. The series is described as follows: Antitumor activity against human patient-derived GBM cells implanted in orthotopic NOG mouse model assessed as lifespan of animal's survival at 20 mg/kg, ip qd with dosing schedule of 5 days on and 2 days off for 28 days (reference value: 25.5 days). The class given is functional. The following applies: time 28 day.

Voltage-dependent L-type calcium channel subunit alpha-1C, sequence (Q13936 whole entry): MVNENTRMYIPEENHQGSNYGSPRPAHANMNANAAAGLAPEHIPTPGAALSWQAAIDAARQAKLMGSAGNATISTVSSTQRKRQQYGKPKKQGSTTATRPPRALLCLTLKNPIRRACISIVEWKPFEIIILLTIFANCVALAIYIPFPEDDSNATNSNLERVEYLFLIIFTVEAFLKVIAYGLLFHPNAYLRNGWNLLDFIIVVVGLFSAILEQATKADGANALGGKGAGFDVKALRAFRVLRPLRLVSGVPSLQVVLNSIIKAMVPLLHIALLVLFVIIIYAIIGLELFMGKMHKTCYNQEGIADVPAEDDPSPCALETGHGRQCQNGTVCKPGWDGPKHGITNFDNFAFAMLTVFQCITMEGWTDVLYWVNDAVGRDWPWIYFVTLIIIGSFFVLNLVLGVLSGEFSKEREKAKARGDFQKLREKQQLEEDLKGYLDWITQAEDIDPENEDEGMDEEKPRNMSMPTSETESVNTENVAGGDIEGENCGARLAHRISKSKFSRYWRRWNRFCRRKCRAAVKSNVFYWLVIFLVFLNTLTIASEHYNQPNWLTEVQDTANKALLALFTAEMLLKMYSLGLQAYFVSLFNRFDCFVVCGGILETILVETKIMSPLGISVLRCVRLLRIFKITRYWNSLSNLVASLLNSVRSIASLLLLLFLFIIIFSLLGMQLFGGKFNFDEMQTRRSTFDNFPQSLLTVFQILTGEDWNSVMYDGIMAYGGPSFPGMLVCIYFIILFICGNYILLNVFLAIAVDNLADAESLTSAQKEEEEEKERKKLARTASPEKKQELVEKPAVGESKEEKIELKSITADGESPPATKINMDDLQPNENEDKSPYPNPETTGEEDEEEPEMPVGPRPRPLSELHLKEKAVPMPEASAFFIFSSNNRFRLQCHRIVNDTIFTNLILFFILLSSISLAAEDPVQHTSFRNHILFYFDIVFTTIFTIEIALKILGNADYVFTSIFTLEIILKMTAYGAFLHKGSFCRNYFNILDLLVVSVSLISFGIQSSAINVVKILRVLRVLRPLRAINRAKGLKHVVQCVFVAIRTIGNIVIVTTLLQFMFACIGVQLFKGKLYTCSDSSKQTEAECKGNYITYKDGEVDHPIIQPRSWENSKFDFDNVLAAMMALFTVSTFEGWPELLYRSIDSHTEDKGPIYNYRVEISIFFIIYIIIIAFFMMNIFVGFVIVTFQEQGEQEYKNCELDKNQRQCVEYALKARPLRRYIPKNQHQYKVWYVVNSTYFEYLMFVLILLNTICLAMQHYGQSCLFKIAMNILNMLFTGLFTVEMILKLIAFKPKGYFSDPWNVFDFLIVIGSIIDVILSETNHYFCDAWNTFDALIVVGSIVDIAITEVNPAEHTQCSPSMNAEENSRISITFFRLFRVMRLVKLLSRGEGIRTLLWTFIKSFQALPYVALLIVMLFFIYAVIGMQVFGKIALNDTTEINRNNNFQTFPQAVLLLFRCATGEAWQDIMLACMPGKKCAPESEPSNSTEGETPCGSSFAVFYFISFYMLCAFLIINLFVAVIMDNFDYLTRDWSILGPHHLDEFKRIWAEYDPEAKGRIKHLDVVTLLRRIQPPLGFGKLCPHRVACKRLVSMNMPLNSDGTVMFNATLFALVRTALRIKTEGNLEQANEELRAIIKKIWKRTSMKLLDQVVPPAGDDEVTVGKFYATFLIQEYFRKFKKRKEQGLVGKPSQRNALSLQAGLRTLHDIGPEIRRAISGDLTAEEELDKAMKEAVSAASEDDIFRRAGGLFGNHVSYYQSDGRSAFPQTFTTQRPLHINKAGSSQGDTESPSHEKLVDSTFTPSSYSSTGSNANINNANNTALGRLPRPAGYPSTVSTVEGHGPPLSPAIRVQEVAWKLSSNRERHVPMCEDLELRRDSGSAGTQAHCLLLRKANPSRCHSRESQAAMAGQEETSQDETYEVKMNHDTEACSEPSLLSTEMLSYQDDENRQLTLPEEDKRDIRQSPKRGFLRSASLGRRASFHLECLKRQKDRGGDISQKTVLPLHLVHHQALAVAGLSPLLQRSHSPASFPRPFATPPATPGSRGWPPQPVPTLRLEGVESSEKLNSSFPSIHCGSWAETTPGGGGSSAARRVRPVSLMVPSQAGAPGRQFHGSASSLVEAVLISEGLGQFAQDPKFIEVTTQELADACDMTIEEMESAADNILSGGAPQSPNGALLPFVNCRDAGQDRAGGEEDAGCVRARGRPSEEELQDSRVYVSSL
Description for BCRP: Efflux ratio of apparent permeability across basal to apical side over apical to basal side in dog MDCK-BCRP cells at 1 uM measured after 1 day by LC-MS/MS analysis
Description for MDR1: Efflux ratio of apparent permeability across basal to apical side over apical to basal side in dog MDCK-MDR1 cells at 1 uM measured after 1 day by LC-MS/MS analysis
Description for in vivo: Unbound brain-to-plasma concentration ratio in Sprague-Dawley rat at 1 mg/kg, iv measured after 15 mins by rapid equilibrium dialysis method

Broadly, the IC50 is the midpoint of a concentration-inhibition curve. What is called efflux ratio is the permeability from basolateral to apical divided by that in the opposite direction, in the common usage. As to `CN1CC2(CCN(c3nc(Nc4cn(C(F)F)cn4)cnc3C#N)C2)C1`, the half-inhibitory concentration (IC50) in series [1] was found to be 14 nM. In addition, the efflux ratio at 24 h, 1 µM with MDR1 is 34; with BCRP it was over 50.
Consider `CN1CC2(C1)CN(c1ccc(-n3cnc(Nc4cnc(C#N)cn4)c3)cc1)C2`, for which the half-maximal inhibitory concentration (IC50) in series [1] is 31 nM.
For `CN(C)[C@H]1CN(c2ccc(-n3cnc(Nc4cnc(C#N)cn4)c3)cc2)C[C@@H]1F`, the 50% inhibitory concentration (IC50) was 5 nM in series [1] and 1310 nM in [2].
Take `Cc1cc(N2CCN(C)CC2)ccc1-n1cnc(Nc2cnc(C#N)cn2)c1`: the IC50 in [1] stood at 464 nM.
For `CN(C)[C@]1(C)CCN(c2ccc(-n3cnc(Nc4cnc(C#N)cn4)c3)cc2)C1`, the values for the IC50 in series [1] and in [2] were 2 nM and 1100 nM, respectively. In addition, the figures for the efflux ratio at 24 h, 1 µM with MDR1 and in the series on BCRP were 3.6 and 1.5, respectively.
With `C[C@@H]1CN(c2ccc(-n3cnc(Nc4cnc(C#N)cn4)c3)cc2)C[C@@H]1N(C)C`, the IC50 in series [1] was 16 nM; in series [2] it was over 10000 nM.
`CN(C)[C@H]1CCN(c2ccc(-n3cnc(Nc4cnc(C#N)cn4)c3)cc2)C1`: the IC50 in [1] worked out at 68 nM.
On to `N#Cc1cnc(Nc2cn(-c3ccccc3)cn2)cn1`, for which the 50% inhibitory concentration (IC50) in [3] came out at 549 nM. Further, the results for the efflux ratio at 24 h, 1 µM in the series with MDR1 and in the series on BCRP were 0.6 and 1, respectively.
A word on the Papp: it is a coefficient for how fast a substance crosses the barrier. As to `N#Cc1cnc(Nc2cn(C(F)F)cn2)cn1`, in series [3], the IC50 was 3000 nM. Moreover, the apparent permeability (Papp) at 24 h, 1 µM in [4] stood at 66 ×10⁻⁶ cm/s. In addition, in the series with MDR1, the efflux ratio at 24 h, 1 µM stood at 0.9.
On to `CN(C)C1CN(c2ccc(-n3cnc(Nc4cnc(C#N)cn4)c3)cc2)C1`, for which the values for the IC50 in [1] and in [2] were 9 nM and over 10000 nM, respectively.
The corresponding values for `C[C@H]1CN(c2ccc(-n3cnc(Nc4cnc(C#N)cn4)c3)cc2)C[C@@H]1N(C)C` are 4 nM and 2720 nM.
Regarding `CN(C)C1CCN(c2ccc(-n3cnc(Nc4cnc(C#N)cn4)c3)cc2)CC1`, the concentration for half-maximal inhibition (IC50) was 11 nM in series [1] and 8760 nM in series [2]. Further, the efflux ratio at 24 h, 1 µM in the series with MDR1 was found to be 26; with BCRP, 23.
With `CN(C)[C@H]1CN(c2ccc(-n3cnc(Nc4cnc(C#N)cn4)c3)cc2)C[C@H]1F`, the results for the concentration for half-maximal inhibition (IC50) in series [1] and in series [2] were 14 nM and 3190 nM, respectively.
Regarding `CN(C)[C@@H]1CCN(c2ccc(-n3cnc(Nc4cnc(C#N)cn4)c3)cc2)C1`, the concentration for half-maximal inhibition (IC50) in series [1] was 4 nM; in series [5], 450 nM; in series [6], over 30000 nM; in series [7], over 30000 nM; in series [8], 209 nM. Besides, the Survival in the series with GBM [9] is 34 days; in the series on GBM [10], 39.5 days; in the series with GBM [11] it was 50 days.
In the case of `CCN1CCN(c2ccc(-n3cnc(Nc4cnc(C#N)cn4)c3)cc2)CC1`, the IC50 in series [1] was 21 nM.
Consider `N#Cc1cnc(Nc2cn(-c3ccc(N4CCN(CCF)CC4)cc3)cn2)cn1`, for which the IC50 in [1] was 40 nM; in [2], over 10000 nM. Besides, the efflux ratio at 24 h, 1 µM in the series on MDR1 is under 1; in the series with BCRP, 1.4.
As a reminder, the Papp A→B is how fast a substance crosses the layer from the apical side. Read a low Papp A→B as slow passage. Turning to `CN1CCN(c2ccc(-n3cnc(Nc4cnc(C#N)cn4)c3)cc2)CC1`, the IC50 was 15 nM in series [1], over 30000 nM in series [12] and over 10000 nM in series [2]. Further, the solubility kinetic at 2 h, 250 µM in [13] worked out at 59 µM (≈ 21.3 µg/mL). Also, the microsomal CLint in series [14] is under 14 µL/min/mg; in series [15], 47 µL/min/mg. This compound had a Kp uu at […] in the series “in vivo” of 0.4. Besides, the efflux ratio at 24 h, 1 µM with MDR1 stood at 1.7; in the series with BCRP, 3.7. The compound further showed an apical-to-basolateral permeability (Papp A→B) at 24 h, 1 µM in the series “in vitro” of 58 ×10⁻⁶ cm/s.
In the case of `CN1CC[C@@H]2CN(c3ccc(-n4cnc(Nc5cnc(C#N)cn5)c4)cc3)C[C@@H]21`, the IC50 in series [1] was 17 nM; in series [2], over 10000 nM. Further, the efflux ratio at 24 h, 1 µM came out at 2.5 in the series on MDR1 and 2.7 with BCRP.
Turning to `CCN(C)[C@@H]1CCN(c2ccc(-n3cnc(Nc4cnc(C#N)cn4)c3)cc2)C1`, the concentration for half-maximal inhibition (IC50) came out at 4 nM in series [1] and 2070 nM in [2].
In the case of `CN1CC2(CCN(c3nc(Nc4cn(-c5ccccn5)cn4)cnc3C#N)C2)C1`, the IC50 in series [1] stood at 2 nM. Also, the efflux ratio at 24 h, 1 µM with MDR1 and in the series on BCRP was over 50 in each case.
Take `CN1CC2(CCN(c3ccc(-n4cnc(Nc5cnc(C#N)cn5)c4)cc3)C2)C1`: the IC50 in series [1] was 12 nM; in series [2], over 10000 nM.
Regarding `Cn1nnc2c(C(N)=O)ncn2c1=O` [TEMOZOLOMIDE], in the series with GBM [16], the Survival is 43 days.
